In ChEMBL document CHEMBL3352803, “Peripherally restricted CB1 receptor blockers” (Bioorg Med Chem Lett, 2013):
Blank lines part the entries; values can stand above or below the compound they belong to.

Assays:
[1] = tested on: Nucleic Acid; test: Ratio of drug uptake in plasma to brain of po dosed mouse; format: ADME, organism-based; settings: in vivo
[2] = molecular target: T1, Cannabinoid receptor 1 (Homo sapiens, UniProt P21554); test: Binding affinity at CB1 receptor (unknown origin)
[3] = molecular target: T1, Cannabinoid receptor 1; test: Inverse agonist activity at human CB1 receptor
[4] = tested on: Nucleic Acid; test: Ratio of drug uptake in plasma to brain of C57BL/6J mouse; format: ADME; settings: in vivo
[5] = molecular target: T2, Cannabinoid receptor 1 (Rattus norvegicus, UniProt P20272); test: Inverse agonist activity at rat CB1 receptor
[6] = tested on: Brain; test: Drug uptake in mouse brain; format: ADME, tissue-based; settings: in vivo, read-out: Drug uptake
[7] = molecular target: T1, Cannabinoid receptor 1; test: Antagonist activity at human CB1 receptor
[8] = tested on: Brain; test: Drug uptake in rat brain; format: ADME, tissue-based; settings: in vivo, read-out: Drug uptake
[9] = molecular target: T1, Cannabinoid receptor 1; test: Binding affinity to human CB1 receptor
[10] = Lipophilicity, log D of the compound; format: physicochemical; settings: octanol/water
[11] = Cmax in rat at 10 mg/kg; format: ADME, organism-based; set-up: dose 10 mg/kg; settings: in vivo
[12] = Protein binding in rat plasma at 10 mg/kg; format: ADME, organism-based; set-up: dose 10 mg/kg; settings: read-out: PPB
[13] = organism: Rattus norvegicus; test: Receptor occupancy at CB1 receptor in diet-induced obese rat assessed as weight loss; format: functional
[14] = tested on: Mus musculus; test: Ex vivo binding affinity at CB1 receptor in mouse at 10 mg/kg, iv; format: functional
[15] = molecular target: T2, Cannabinoid receptor 1; test: Antagonist activity at rat CB1 receptor
[16] = tested on: Rattus norvegicus; test: Receptor occupancy at CB1 receptor in rat frontal cortex at 3 to 10 mg/kg, po; format: functional; settings: dose mg/kg 3-10
[17] = tested on: Rattus norvegicus; test: Receptor occupancy at CB1 receptor in rat frontal cortex at 10 mg/kg, po; format: functional

T1 sequence (P21554 whole entry): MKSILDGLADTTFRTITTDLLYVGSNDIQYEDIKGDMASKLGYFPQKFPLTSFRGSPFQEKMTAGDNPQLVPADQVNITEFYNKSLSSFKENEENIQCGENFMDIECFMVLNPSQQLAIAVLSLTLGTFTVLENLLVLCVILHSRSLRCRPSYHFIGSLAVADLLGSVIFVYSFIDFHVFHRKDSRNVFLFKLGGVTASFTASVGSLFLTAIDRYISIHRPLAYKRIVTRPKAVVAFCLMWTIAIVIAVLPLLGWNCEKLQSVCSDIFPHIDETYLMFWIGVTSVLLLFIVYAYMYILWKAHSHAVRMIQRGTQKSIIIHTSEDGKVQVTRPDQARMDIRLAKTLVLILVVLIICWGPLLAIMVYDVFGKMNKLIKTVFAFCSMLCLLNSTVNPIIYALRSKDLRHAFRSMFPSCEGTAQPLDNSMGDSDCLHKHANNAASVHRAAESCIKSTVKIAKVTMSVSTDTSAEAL
T2 sequence (P20272 whole entry): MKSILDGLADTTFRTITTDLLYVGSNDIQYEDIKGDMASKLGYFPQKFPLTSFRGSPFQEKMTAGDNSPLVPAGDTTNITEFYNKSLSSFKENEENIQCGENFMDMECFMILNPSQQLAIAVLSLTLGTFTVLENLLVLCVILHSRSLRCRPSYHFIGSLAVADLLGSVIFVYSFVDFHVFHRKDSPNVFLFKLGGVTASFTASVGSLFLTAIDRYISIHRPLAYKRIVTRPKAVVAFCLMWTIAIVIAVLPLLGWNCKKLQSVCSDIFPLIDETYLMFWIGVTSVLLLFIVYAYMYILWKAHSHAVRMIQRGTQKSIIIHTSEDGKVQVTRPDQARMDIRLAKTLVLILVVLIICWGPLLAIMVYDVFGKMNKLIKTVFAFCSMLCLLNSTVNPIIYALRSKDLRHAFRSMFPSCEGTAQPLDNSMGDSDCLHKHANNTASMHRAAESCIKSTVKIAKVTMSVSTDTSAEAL

Ratio [1]: 1.2 | Ki [2]: 3 nM | IC50 [3]: 8.5 nM | Ratio [4]: 33
SMILES: CCc1c(C(=O)NN2CCCCC2)nn(-c2ccc(Cl)cc2Cl)c1-c1ccc(C#Cc2ccc(C(F)(F)F)cc2)s1

IC50 [5]: 690 nM | IC50 [3]: 631 nM
SMILES: CCCCCCc1nc(-c2ccc(Cl)cc2)n(-c2ccc(Cl)cc2Cl)n1

concentration [6]: 50 nM | Ki [7]: 1 nM | Ratio [1]: 33 | concentration [8]: 50 nM
SMILES: Cc1c(C(=O)NN2CCS(=O)(=O)CC2)nn(-c2ccc(Cl)cc2Cl)c1-c1ccc(C#CCCC#N)cc1

IC50 [9]: 10 nM | Ki [9]: 9 nM | logD [10]: 3.66 | Cmax [11]: 430 nM | fraction unbound [12]: < 0.01
SMILES: CC1(C)C(=O)N(c2ccc(F)c(C(F)(F)F)c2)C(=O)C1Cc1ccc(F)cc1NC(=O)Nc1ccc(S(N)(=O)=O)cc1 (stereo not given)

SMILES: C[C@H](NC(=O)C(C)(C)Oc1ccc(C(F)(F)F)cn1)[C@@H](Cc1ccc(Cl)cc1)c1cccc(C#N)c1 [TARANABANT]
Occ [13]: 30%

SMILES: CS(=O)(=O)NCCCn1c(C(=O)N2CCC(C(N)=O)(N3CCC(F)(F)CC3)CC2)cc(-c2ccc(Cl)cc2Cl)c1-c1ccc(Cl)cc1
Activity [14]: 28%

IC50 [15]: 159 nM
SMILES: Cc1c(/C=C/C(=O)NCc2cccc(Cl)c2)nn(-c2ccc(Cl)cc2Cl)c1-c1ccc(Cl)cc1

SMILES: Cc1c(C(=O)NN2CCCCC2)nn(-c2ccc(Cl)cc2Cl)c1-c1ccc(Cl)cc1 [RIMONABANT]
Occ [16]: >65%

SMILES: CN/C(=N\S(=O)(=O)c1ccc(Cl)cc1)N1C[C@H](c2ccccc2)C(c2ccc(Cl)cc2)=N1 [IBIPINABANT]
Occ [17]: 11%
